Results taken from article PMC10344917, “Affinity and cooperativity modulate ternary complex formation to drive targeted protein degradation” (Nature Communications, 2023).
Where two headings read alike, the source gives them in different places.

Tests used:
BRD4 [1] = target: T1, BRD4 (Homo sapiens, UniProt O60885); assay: BRD4 degradation, MSD assay, dose response; format: cell-based; set-up: AUC (area under the dose-response curve): unit not given beside the values; details: A375 cells; for Dmax: A-375, BRD4 degraded; for Dmax / DC50: MSD assay, 4 h timepoint; for AUC (area under the dose-response curve): BRD4 MSD assay, 4 h; for DC50: BRD4 degradation
T1 construct: endogenous in cells; host or cells: A375
Protocol: A375 cells were treated with SMARCA2 or BRD4 degraders for 2 h (4 h for BRD4) and generated lysates. SMARCA2 or BRD4 protein was measured with a variation of a sandwich ELISA that was assembled from commercially available antibodies as well as reagents and instrumentation procured from Meso Scale Discovery (MSD). Degradation parameter, DC50, is not suitable for PROTACs that induce partial/incomplete DR curves at a fixed time point; maximum drop in target protein level (Dmax) >>0. Conversely, the area under the curve (AUC) can be calculated as a degradation activity parameter for any DR curve, and it encompasses both the degradation potency (i.e., DC50) and efficacy (i.e., Dmax) of PROTACs.
A 1:3 compound dose-response titration was diluted in growth media (1:20), added to appropriate wells of a cell culture plate (1:10) and then assay plates were incubated at 37 °C, 5% CO2.
Plates were washed with 300 µL per well MSD wash buffer (MSD R61TX-1) between each step. Following the last incubation, plates were washed with MSD wash buffer then 150 µL of MSD read buffer (MSD R92TC-2) was added to each well. Plates were immediately read on a MSD plate reader (MSD Sector Imager 6000).
(§1) MSD electrochemiluminescence signals were subtracted by the average background signal from wells with lysis buffer alone. Normalized MSD values (POC) for individual compound treated wells were acquired by dividing background-subtracted assay signal by signal from vehicle control wells (cells + 0.1% DMSO) and multiplying by 100. This POC data was graphed using a nonlinear regression curve fit xy analysis and a log(inhibitor) vs response —variable slope (four parameter) model for dose response curves (Graphpad Prism 9, San Diego, CA, USA). To calculate area under the curve, all points on the curve were connected and vertical lines were drawn from each point down to y = 0, generating a series of trapezoids. The area of each trapezoid was determined using the equation A = (1/2)(h)(b1 + b2), where h = 1 (distance between points), b1 = POC of the first point and b2 = POC of the second point. The sum of all trapezoids provides an approximate area under the curve (AUC). For half-life (t1/2) determination in time course studies, a one-phase decay model was used for curve fitting and the time at which the curve crossed 50 POC was determined through interpolation (Graphpad Prism 9, San Diego, CA, USA).

BRD4 [2] = target: T1, BRD4; assay: BRD4 degradation time course in A375 cells (MSD); format: cell-based; details: single concentration at or near maximal activity
Source text: To measure the rate of protein degradation, we treated A375 cells with a single concentration of each PROTAC and measured the decrease in target abundance over time as shown in Figs. 4b and5b.
as §1

[3] = target: T2, VBC / BRD4^BD1 ternary complex (Homo sapiens, UniProt O60885+P40337); assay: SPR ternary complex binding, VBC surface with preformed PROTAC/BRD4 BD1 complex; details: for Kd: SPR, VHL, PROTAC, error SEM, N = 3, read-out: KLPT (ternary complex binding affinity)
T2 construct: VHL (54-213), ElonginB (17-112) ElonginC (1-104); BRD4 (44-168); His6 (N, cleaved yes); made in house
Protocol: (§2) SPR experiments were performed on a Biacore 8 K or T200 instrument (Cytiva). […] The running buffer during immobilization was PBS with 0.005% P20. Either high-density (3000-4000 RU) or low-density (300-400 RU) VBC-functionalized surfaces were created, followed by equilibration in the running buffer for 3 h.
(§3) PROTACs (10 mM in 100% DMSO) were initially prepared at 200 nM in a running buffer (20 mM Tris pH 8.0, 250 mM NaCl, 1 mM TCEP, 0.01% P20, 0.2 mg/ml BSA) with a concentration of 2% DMSO. This solution was mixed at 1:1 ratio with a solution of 5 μM of the SMARCA2 or BRD4 bromodomain protein in the running buffer. […] For ternary experiments, solutions were injected sequentially in single-cycle kinetic format without regeneration (contact time 60 s, flow rate 80 μL/min, dissociation time 300 s) using a stabilization period of 60 s and syringe wash (50% DMSO) between injections onto a low-density VBC-functionalized surface.
(§4) Raw sensorgrams were processed by performing double reference subtraction, solvent correction, and analysis was done using Biacore Insight Evaluation Software. Kinetic analysis was performed by fitting data to a 1:1 Langmuir interaction model and a steady-state affinity model was used to evaluate equilibrium binding affinity.

[4] = target: T3, VBC / BRD4^BD2 ternary complex (Homo sapiens, UniProt O60885+P40337); assay: SPR ternary complex binding, VBC surface with preformed PROTAC/BRD4 BD2 complex; details: for Kd: SPR, VHL, PROTAC, error SEM, N = 3, read-out: KLPT (ternary complex binding affinity)
T3 construct: VHL (54-213), ElonginB (17-112) ElonginC (1-104); ternary complex formation with both bromodomains, BRD4^BD1 and BRD4^BD2, independently; His6 (N); made in house
Protocol: as §2, §3, §4

BRD4^BD2 = target: T4, BRD4^BD2 (Homo sapiens, UniProt O60885); assay: SPR binary binding of PROTAC to BRD4^BD2-functionalized surface; details: 1:1 Langmuir binding model, SD N=2
T4 construct: ternary complex formation with both bromodomains, BRD4^BD1 and BRD4^BD2, independently; made in house

BRD4-NanoLuc = target: T5, BRD4-NanoLuc (Homo sapiens, UniProt O60885); assay: NanoBRET target engagement assay, live and permeabilized HEK293 cells (BRD4); format: cell-based; details: for Availability Index: RBA test cmpd / RBA of JQ1 benchmark, surrogate for permeability; for IC50: BRD4 NanoBRET TE
T5 construct: expressed in transfected cells; host or cells: HEK293
Protocol: We employed a NanoBRET-based target engagement (TE) assay as reported earlier^7 for evaluating PROTACs relative permeability. In summary, live and permeabilized HEK293 cells with SMARCA2 or BRD4-NanoLuc were used for measuring IC50 values of different PROTACs. The relative shift in the IC50 was evaluated as relative binding affinity (RBA) by taking the ratio of IC50 values of live and permeabilized cells. Availability index (AI), which is a surrogate for permeability can be calculated by taking a ratio of RBA of compounds to permeable benchmark molecules.
Relative Binding Affinity (RBA) = Live-cell TE IC50 / Permeabilized-cell TE IC50
Availability Index (AI) = RBAtest cmpd / RBApermeable benchmark
Availability Index (AI) greater than one is indicative of reduced permeability compared to the benchmark.

VHL/EloB/EloC (VBC) = target: T6, VHL/EloB/EloC (VBC) (Homo sapiens, UniProt P40337); assay: SPR binary binding of PROTAC to VBC-functionalized surface
T6 construct: VHL (54-213), ElonginB (17-112) ElonginC (1-104); made in house
Protocol: as §2
PROTACs (10 mM stocks in 100% DMSO) were diluted to 400 nM in a running buffer (20 mM Tris pH 7.5, 200 mM NaCl, 0.02% P20). This stock solution was then serially diluted in the running buffer containing final 2% DMSO. […] For SMARCA2 analysis, biotinylated proteins were introduced on a Series S streptavidin (SA) sensor chip at high-density (3000-4000 RU).
as §4

[5] = live HEK293 cells, read-out: Live-Cell TE
[6] = permeabilized HEK293 cells, read-out: Permeabilized-Cell TE
[7] = SPR, error SEM, N = 3, read-out: KLP (binary binding affinity between E3 ligase VHL and PROTAC)

Row | Kd (VHL/EloB/EloC (VBC); [7]) | Compound | Dmax (BRD4 [1]) | AUC (area under the dose-response curve) (BRD4 [1]) | DC50 (BRD4 [1]) | Initial Degradation Rate (BRD4 [2]) | α (cooperativity, KLP/KLPT) [3] | Kd [3] | α (cooperativity, KLP/KLPT) [4] | Kd [4] | Kd (BRD4^BD2) | Availability Index (BRD4-NanoLuc) | IC50 (BRD4-NanoLuc; [5]) | IC50 (BRD4-NanoLuc; [6]) | Kd (VHL/EloB/EloC (VBC))
1 |  | Cc1ncsc1-c1ccc(CNC(=O)[C@@H]2C[C@@H](O)CN2C(=O)[C@@H](NC(=O)COCCOCc2cn(CCNC(=O)C[C@@H]3N=C(c4ccc(Cl)cc4)c4c(sc(C)c4C)-n4c(C)nnc43)nn2)C(C)(C)C)cc1 [Compound 13, (2S,4R)-1-((S)-2-(2-(2-((1-(2-(2-((S)-4-(4-chlorophenyl)-2,3,9-trimethyl-6H-thieno[3,2-f][1,2,4]triazolo[4,3-a][1,4]diazepin-6-yl)acetamido)ethyl)-1H-1,2,3-triazol-4-yl)methoxy)ethoxy)acetamido)-3,3-dimethylbutanoyl)-4-hydroxy-N-(4-(4-methylthiazol-5-yl)benzyl)pyrrolidine-2-carboxamide] | 78% | 309 | 0.726 µM | 0.76 %/min | 0.6 | 0.029 ± 0.003 µM | 1.7 | 0.01 ± 0.002 µM | 0.0117 ± 0.0009 µM | 73.87 | 7.27 µM | 0.1 µM | 0.017 ± 0.002 µM
2 | 0.026 ± 0.005 µM | Cc1ncsc1-c1ccc(CNC(=O)[C@@H]2C[C@@H](O)CN2C(=O)[C@@H](NC(=O)COCCOCCOCc2cn(CCNC(=O)C[C@@H]3N=C(c4ccc(Cl)cc4)c4c(sc(C)c4C)-n4c(C)nnc43)nn2)C(C)(C)C)cc1 [Compound 14, (2S,4R)-1-((S)-12-(tert-butyl)-1-(1-(2-(2-((S)-4-(4-chlorophenyl)-2,3,9-trimethyl-6H-thieno[3,2-f][1,2,4]triazolo[4,3-a][1,4]diazepin-6-yl)acetamido)ethyl)-1H-1,2,3-triazol-4-yl)-10-oxo-2,5,8-trioxa-11-azatridecan-13-oyl)-4-hydroxy-N-(4-(4-methylthiazol-5-yl)benzyl)pyrrolidine-2-carboxamide] | 69% | 460 | 2.26 µM | 0.46 %/min | 0.8 | 0.033 ± 0.004 µM | 1 | 0.0265 ± 0.004 µM | 0.0096 ± 0.0009 µM | 126.63 | 12.6 µM | 0.1 µM | 
3 | 0.031 ± 0.004 µM | Cc1ncsc1-c1ccc(CNC(=O)[C@@H]2C[C@@H](O)CN2C(=O)[C@@H](NC(=O)COCCOCCOCCOCc2cn(CCNC(=O)C[C@@H]3N=C(c4ccc(Cl)cc4)c4c(sc(C)c4C)-n4c(C)nnc43)nn2)C(C)(C)C)cc1 [Compound 15, (2S,4R)-1-((S)-15-(tert-butyl)-1-(1-(2-(2-((S)-4-(4-chlorophenyl)-2,3,9-trimethyl-6H-thieno[3,2-f][1,2,4]triazolo[4,3-a][1,4]diazepin-6-yl)acetamido)ethyl)-1H-1,2,3-triazol-4-yl)-13-oxo-2,5,8,11-tetraoxa-14-azahexadecan-16-oyl)-4-hydroxy-N-(4-(4-methylthiazol-5-yl)benzyl)pyrrolidine-2-carboxamide] |  | 733 | > 10 µM | 0.21 %/min | 1.2 | 0.0265 ± 0.004 µM | 0.8 | 0.039 ± 0.005 µM | 0.0162 ± 0.0026 µM | 34.23 | 3.92 µM | 0.11 µM | 
4 |  | Cc1ncsc1-c1ccc(CNC(=O)[C@@H]2C[C@@H](O)CN2C(=O)[C@@H](NC(=O)COCCOCCOCCOCCOCc2cn(CCNC(=O)C[C@@H]3N=C(c4ccc(Cl)cc4)c4c(sc(C)c4C)-n4c(C)nnc43)nn2)C(C)(C)C)cc1 [Compound 16, (2S,4R)-1-((S)-18-(tert-butyl)-1-(1-(2-(2-((S)-4-(4-chlorophenyl)-2,3,9-trimethyl-6H-thieno[3,2-f][1,2,4]triazolo[4,3-a][1,4]diazepin-6-yl)acetamido)ethyl)-1H-1,2,3-triazol-4-yl)-16-oxo-2,5,8,11,14-pentaoxa-17-azanonadecan-19-oyl)-4-hydroxy-N-(4-(4-methylthiazol-5-yl)benzyl)pyrrolidine-2-carboxamide] |  | 900 | > 10 µM | 0.08 %/min | 1 | 0.033 ± 0.005 µM | 0.7 | 0.049 ± 0.006 µM | 0.0158 ± 0.002 µM | 164.81 | 18 µM | 0.11 µM | 0.033 ± 0.005 µM
